Converted amounts (≈) assume the structure as drawn. Like-named read-outs stand apart in the source and are kept apart here.
Tests used:
P aeruginosa = assay: Disc clearing assay; format: cell-based, Pseudomonas aeruginosa; details: result in words
Protocol: (§1) Disc clearing assay: The disc diffusion test was performed on Mueller Hinton (MH) agar plates for bacterial cultures and yeast extract, peptone, dextrose (YPD) for fungal cultures. The assay was repeated 3 times. Discs were soaked in 10 μl of either DMSO or 10 mg/ml compound stock solution and air-dried. Three hundred microliters of an overnight culture of bacteria or fungi were spread on plates. After completely drying the agar plate in a laminar flow hood, DMSO or compound impregnated discs were overlaid on the plate and incubated at 35° C. for 18 hrs.

human erythrocytes = assay: Human blood hemolysis; format: cell-based; details: increasing concentrations; result in words
Protocol: Human blood hemolysis. Hemolytic activity of retinoids on human erythrocytes was evaluated using a previously described method with modifications (Rajamuthiah, R. et al. A defensin from the model beetle Tribolium castaneum acts synergistically with telavancin and daptomycin against multidrug resistant Staphylococcus aureus. PLoS ONE 10, e0128576 (2015)). 10% human erythrocytes were purchased from Rockland Immunochemicals (Limerick, Pa., USA). The erythrocytes were diluted to 4% with PBS, and 100 μl was added to 100 μl of two-fold serial dilutions of compounds in PBS, 0.2% DMSO (negative control), or 2% Triton-X 100 (positive control) in a 96-well plate. The 96-well plate was incubated at 37° C. for 1 h and then centrifuged at 500×g for 5 min. 100 μl of the supernatant was transferred to a fresh 96-well plate, and absorbance of supernatants was measured at 540 nm. Percent hemolysis was calculated using the following equation: (A540 nm of compound treated sample—A540nm of 0.1% DMSO treated sample)/(A540 nm of 1% Triton X-100 treated sample—A540nm of 0.1% DMSO treated sample)×100. HC50 (concentration of a compound causing 50% hemolysis) was determined using SigmaPlot 10.0 (Systat Software Inc., San Jose, Calif., USA).
In a 96 well plate, 50 μl of 2% human erythrocytes suspended in PBS was added to 50 μl of compounds serially diluted in PBS and incubated at 37° C. for 1 hour. The plate was then centrifuged at 500 G for 5 minutes and 50 μl of the supernatant from each well of the assay plate was transferred to a fresh 96 well plate. Hemolysis was confirmed by both visual observation and measuring absorbance at 540 nm. Treatment was conducted in triplicate.
2% human erythrocytes were treated with two-fold serially diluted concentration of the retinoids for 1 h at 37° C. A sample treated with 1% Triton-X 100 was used as the control for 100% hemolysis. Results are shown as means±s.d.; n=3.

S. aureus = assay: Minimal inhibitory concentration (MIC), broth microdilution; format: cell-based, Staphylococcus aureus; details: for MIC: Staphylococcus aureus, read-out: MIC
How it was run: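 MIC values against methicillin-resistant Staphylococcus aureus were determined by standard broth microdilution following Clinical and Laboratory Standards Institute guidance (CLSI document M07-A8). Each well held 100 μl of test compound plus bacterial cells in MH broth, with the starting OD600 set to 0.03. Plates were incubated 18 hrs at 35° C. and absorbance was then read at 595 nm.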

HepG2 cells = assay: Toxicity assay with HepG2 liver cells (WST-1); format: cell-based; details: 24 hours; result in words
Protocol: HepG2 cells were cultured in Dulbecco's modified Eagle medium (DMEM) containing 10% fetal bovine serum, 25 mM D-glucose, 2 mM L-glutamine, 1 mM sodium pyruvate and 1% penicillin/streptomycin and maintained at 37° C. in 5% CO2. For the toxicity test, HepG2 were cultured at 70-80% confluence in 96-well plates in a volume of 100 μl/well culture medium. Serially diluted chemical compounds were incubated with the cells at 37° C. in 5% CO2 for 24 hours. Ten microliters of 4-(3-(4-iodophenyl)-2-(4-nitrophenyl)-2H-5-tetrazolio)-1,3-benzene disulfonate (WST-1) solution were added per well for the last 4 hours of the 24 hours period. WST-1 reduction was detected using absorbance at 490 nm by a Vmax microplate reader. The percent […] relative to that of the no-treatment control was calculated. The assay was done in triplicate.

E. faecium = assay: Disc clearing assay; format: cell-based, Enterococcus faecium; details: result in words
Protocol: as §1

E. spp. = assay: Disc clearing assay; format: cell-based, Enterobacter sp.; details: result in words
Protocol: as §1

A. baumannii = assay: Disc clearing assay; format: cell-based, Acinetobacter baumannii; details: result in words
Protocol: as §1

K. pneumoniae = assay: Disc clearing assay; format: cell-based, Klebsiella pneumoniae; details: result in words
Protocol: as §1

In the case of `CC1COc2c(N3CCN(C)CC3)c(F)cc3c(=O)c(C(=O)OCc4ccccn4)cn1c23` (stereo not shown) [Z3060, pyridin-2-ylmethyl 9-fluoro-3-methyl-10-(4-methylpiperazin-1-yl)-7-oxo-3,7-dihydro-2H-[1,4]oxazino[2,3,4-ij]quinoline-6-carboxylate], the “zone of inhibition, P aeruginosa” value (P aeruginosa) was “zone of inhibition”, the “toxicity (hemolysis) to erythrocytes” value (human erythrocytes) was “did not exhibit lysis” and the MIC (S. aureus; S. aureus (reference strain)) was 2 µg/mL (≈ 4.42 µM). The MIC (S. aureus; clinical isolates of S. aureus (Z3060)) was 1 to 2 µg/mL (≈ 2.21 to 4.42 µM), the MIC change (S. aureus; clinical isolates known to be drug resistant, result in words) was “increased” and the HepG2 cell viability (HepG2 cells) was “cell viability are maintained”. The “zone of inhibition, E. faecium” value (E. faecium) was “zone of inhibition”, the “zone of inhibition, E. spp.” value (E. spp.) was “zone of inhibition” and the “zone of inhibition, A. baumannii” value (A. baumannii) was “zone of inhibition”. The “zone of inhibition, K. pneumoniae” value (K. pneumoniae) was “zone of inhibition”.
